# Test results from patent US8314058B2, “Uptake of macromolecules” (Axcess Limited, priority 2003, dated 2012).
# Test system: juvenile pigs
# Experiment: In vivo efficacy of tablets containing chenodeoxycholate/propyl gallate/calcitonin mixture in juvenile pigs (blood calcium)
# Conditions: 400 iu s.c., six hour period
# Method: Blood calcium levels are measured at intervals over a six hour period and mean change in AUC of plasma calculated is calculated in h·mmol/l.
substance,measurement,value
salmon calcitonin,AUC (mean change in AUC of plasma calcium),-1.79 mmol·h/L
